Reference: patent US20250115573A1, “PYRIDAZINE-BASED PYRIDINE DERIVATIVES AS BIOLOGICALLY ACTIVE AGENTS” (priority 2023, published 2025)
≈ marks a conversion by molar mass, not a printed value.

What was measured:
[1] = DPPH antioxidant activity; settings: DPPH method; ascorbic acid's IC50 value normalized to 100%
Experimental: The antioxidant activity was assessed by the DPPH (1,1-diphenyl-2-picryl hydrazyl) method employing ascorbic acid as a standard. A 0.1 mM solution of DPPH was freshly prepared in ethanol. Different dilutions (25, 20, 15, 10 and 5 μg/mL) of compounds 1-12 and ascorbic acid were also prepared in ethanol. The test and standard solutions were prepared by adding DPPH solution (2 mL) to the different dilutions (6 mL each) of the compounds 1-12 and ascorbic acid, respectively. The control solution was prepared by adding DPPH solution (2 mL) to ethanol (6 mL). The resultant mixtures were shaken and kept at 25° C. for half an hour. The absorbance of the test, standard, and control solutions was measured at 517 nm using a UV-Visible spectrophotometer. The experiment was performed in triplicate, and the antioxidant activity was calculated using the following equation,
wherein Ac is the absorbance of the control, and As is the absorbance of the test or standard sample. The IC50 values were obtained from the regression analysis.

[2] = biological target: T1, human COX-2 (Homo sapiens, UniProt P35354); experiment: In vitro COX-2 inhibitory activity; type: biochemical; settings: for selectivity index: COX-2 over COX-1, selectivity index of celecoxib normalized to 100%; for COX-2 inhibitory activity in comparison to celecoxib: IC50 value of celecoxib normalized to 100%
T1 construct: purchased Cayman Chemicals 560131
T1 sequence (P35354 18-604): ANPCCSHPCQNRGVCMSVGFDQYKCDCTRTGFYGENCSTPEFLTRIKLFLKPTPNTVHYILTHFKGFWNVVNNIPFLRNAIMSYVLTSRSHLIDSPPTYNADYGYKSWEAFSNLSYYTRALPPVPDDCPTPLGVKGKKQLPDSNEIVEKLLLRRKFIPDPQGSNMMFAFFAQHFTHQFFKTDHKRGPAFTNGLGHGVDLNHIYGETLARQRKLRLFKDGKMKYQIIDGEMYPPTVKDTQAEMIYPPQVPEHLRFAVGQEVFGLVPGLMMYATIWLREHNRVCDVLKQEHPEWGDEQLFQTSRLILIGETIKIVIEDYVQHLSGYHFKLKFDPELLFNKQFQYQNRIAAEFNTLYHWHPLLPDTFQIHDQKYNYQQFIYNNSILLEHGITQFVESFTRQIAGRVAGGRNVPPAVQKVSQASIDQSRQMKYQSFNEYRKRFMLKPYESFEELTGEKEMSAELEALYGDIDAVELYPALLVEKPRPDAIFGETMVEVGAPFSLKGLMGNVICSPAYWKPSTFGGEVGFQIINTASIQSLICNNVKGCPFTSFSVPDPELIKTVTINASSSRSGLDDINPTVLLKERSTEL

[3] = test system: Aspergillus niger (A. niger, MTCC 281); experiment: Antimicrobial activity, serial plate dilution method; type: cell-based; settings: MTCC281, against A. niger, Sabouraud dextrose medium
Experimental: (§1) Antimicrobial activity was performed by the serial plate dilution method (Medicinal Chemistry Research, 2017, 26, 1481-1496; Arabian Journal of Chemistry, 2016, 9, 1523-1531) against two Gram-positive bacteria, Staphylococcus aureus (S. aureus, ATCC 25923) and Enterococcus faecalis (E. faecalis, ATCC 29212); two Gram-negative bacteria, Escherichia coli (E. coli, ATCC 25922) and Pseudomonas aeruginosa (P. aeruginosa, ATCC 27853); and two fungi, Candida albicans (C. albicans, ATCC 2091) and Aspergillus niger (A. niger, MTCC 281). Antibacterial activity was performed on nutrient agar medium, whereas Sabouraud dextrose medium was used for the antifungal activity. The compounds 1-12 were tested at 100, 75, 50, 25, and 12.5 μg/mL concentrations. The standard antibiotics, ofloxacin and ketoconazole, were tested at 50, 25, and 12.5 μg/mL concentrations. Sterile dimethyl sulfoxide (DMSO) was used as a solvent for making the desired concentrations of the compounds ofloxacin and ketoconazole. Sterile DMSO also served as a control group. The minimum inhibitory concentrations (MICs) values of the synthesized compounds, ofloxacin and ketoconazole, were determined. The minimum inhibitory concentration (MIC) has been defined as the lowest concentration of a compound that inhibits the visible growth of the microorganisms in the media.

[4] = test system: Candida albicans (C. albicans, ATCC 2091); experiment: as above; type: cell-based; settings: ATCC2091, against C. albicans, Sabouraud dextrose medium
Experimental: as §1

[5] = test system: Enterococcus faecalis (E. faecalis, ATCC 29212); experiment: as above; type: cell-based; settings: ATCC29212, against E. faecalis, nutrient agar medium
Experimental: as §1

[6] = test system: Staphylococcus aureus (S. aureus, ATCC 25923); experiment: as above; type: cell-based; settings: ATCC25923, against S. aureus, nutrient agar medium
Experimental: as §1

Question: For `COc1ccccc1-n1c(N)c(C#N)c(-c2ccc(-n3nc(-c4ccccc4)ccc3=O)cc2)c(C#N)c1=O` [Compound 4, 6-Amino-1-(2-methoxyphenyl)-2-oxo-4-(4-(6-oxo-3-phenylpyridazin-1(6H)-yl)phenyl)-1,2-dihydropyridine-3,5-dicarbonitrile], which “antioxidant activity in comparison to ascorbic acid” value (shortened to “antioxidant activity in comparison”) [1] is on record?
Answer: The value was 71.95%.

Question: Which selectivity index [2] does the source give for `N#Cc1c(-c2ccc(-n3nc(-c4ccccc4)ccc3=O)cc2)c(C#N)c(=O)n(-c2ccccn2)c1N` [Compound 6, 6-Amino-2-oxo-4-(4-(6-oxo-3-phenylpyridazin-1(6H) -yl)phenyl)-2H-[1,2′-bipyridine]-3,5-dicarbonitrile] here?
Answer: The selectivity index was 101.61%.

Question: Which selectivity index [2] does the source give for `N#Cc1c(-c2ccc(-n3nc(-c4ccccc4)ccc3=O)cc2)c(C#N)c(=O)n(-c2nccs2)c1N` [Compound 7, 6-Amino-2-oxo-4-(4-(6-oxo-3-phenylpyridazin-1(6H) -yl)phenyl)-1-(thiazol-2-yl)-1,2-dihydro-pyridine-3,5-dicarbonitrile] here?
Answer: Its selectivity index is 121.73%.

Question: Which “antioxidant activity in comparison” value [1] does the source give for `Cc1c(-n2c(N)c(C#N)c(-c3ccc(-n4nc(-c5ccccc5)ccc4=O)cc3)c(C#N)c2=O)c(=O)n(-c2ccccc2)n1C` [Compound 8, 6-Amino-1-(1,5-dimethyl-3-oxo-2-phenyl-2,3-dihydro-1H-pyrazol-4-yl)-2-oxo-4-(4-(6-oxo-3-phenylpyridazin-1(6H)-yl)phenyl) -1,2-dihydropyridine-3,5-dicarbonitrile] here?
Answer: Its value is 78.32%.

Question: Which results are given for `N#Cc1c(-c2ccc(-n3nc(-c4ccccc4)ccc3=O)cc2)c(C#N)c(=O)n(-c2cccc(C(F)(F)F)c2)c1N` [Compound 9, 6-amino-2-oxo-4-(4-(6-oxo-3-phenylpyridazin-1(6H) -yl)phenyl)-1-(3-(trifluoromethyl)phenyl)-1,2-dihydropyridine-3,5-dicarbonitrile]?
Answer: antioxidant activity in comparison to ascorbic acid [1]: 70.90%; MIC [3]: 12.5 µg/mL (≈ 22.7 µM); MIC [4]: 12.5 µg/mL (≈ 22.7 µM); selectivity index [2]: 111.0%; COX-2 inhibitory activity in comparison to celecoxib [2]: 100.89%

Question: Which “antioxidant activity in comparison” value [1] does the source give for `N#Cc1c(-c2ccc(-n3nc(-c4ccccc4)ccc3=O)cc2)c(C#N)c(=O)n(-c2ccc(S(N)(=O)=O)cc2)c1N` [Compound 10, 4-(6-amino-3,5-dicyano-2-oxo-4-(4-(6-oxo-3-phenylpyridazin-1(6H)-yl)phenyl)pyridin-1(2H)-yl)benzenesulfonamide] here?
Answer: The value was 74%.

Question: What about the MIC [5] of the same molecule?
Answer: Its MIC is 25 µg/mL (≈ 44.5 µM).

Question: And the MIC [6]?
Answer: Its MIC is 25 µg/mL (≈ 44.5 µM).

Question: And the selectivity index [2]?
Answer: The selectivity index was 121.20%.

Question: And the “COX-2 inhibitory activity in comparison to celecoxib” value [2]?
Answer: The value was 105.95%.

Question: With `O=C1O[C@H]([C@@H](O)CO)C(O)=C1O` [ascorbic acid, reference compound] as the molecule, how does the “antioxidant activity in comparison” value [1] read?
Answer: Its value is 100%.

Question: With `CC(=O)N1CCN(c2ccc(OCC3COC(Cn4ccnc4)(c4ccc(Cl)cc4Cl)O3)cc2)CC1` (stereo not shown) [ketoconazole, reference compound] as the molecule, how does the MIC [3] read?
Answer: The MIC was 12.5 µg/mL (≈ 23.5 µM).

Question: What about the MIC [4] of the same molecule?
Answer: Its MIC is 12.5 µg/mL (≈ 23.5 µM).

Question: For `CC1COc2c(N3CCN(C)CC3)c(F)cc3c(=O)c(C(=O)O)cn1c23` (stereo not shown) [ofloxacin, reference compound], which MIC [5] is on record?
Answer: Its MIC is 25 µg/mL (≈ 69.2 µM).

Question: And the MIC [6]?
Answer: Its MIC is 25 µg/mL (≈ 69.2 µM).
